{"source": "ChEMBL document CHEMBL4145596", "about": "“Design, Synthesis, and X-ray of Selenides as New Class of Agents for Prevention of Diabetic Cerebrovascular Pathology” (ACS Med Chem Lett, 2018)", "key": {"RBE4 [1]": {"test_system": "RBE4", "test": "Cytotoxicity against rat RBE4 cells assessed as mortality at 10 uM after 24 hrs by MTT assay", "type": "cell-based", "details": "rbe4, 24 h"}, "Carbonic anhydrase 9": {"target": "Carbonic anhydrase 9 (Homo sapiens, UniProt Q16790)", "description": "Inhibition of human carbonic anhydrase 9 after 15 mins by stopped flow carbon dioxide hydration assay"}, "RBE4 [2]": {"test_system": "RBE4", "test": "Protection against glucose oxidase-induced oxidative stress in rat RBE4 cells assessed as increase in cell viability at 100 uM cotreated with glucose oxidase for 1 hr measured after 24 hrs by MTT assay", "type": "functional, cell-based"}, "RBE4 [3]": {"test_system": "RBE4", "test": "Cytotoxicity against rat RBE4 cells assessed as mortality at 30 uM after 24 hrs by MTT assay", "type": "cell-based", "details": "rbe4, 24 h"}, "RBE4 [4]": {"test_system": "RBE4", "test": "Protection against glucose oxidase-induced oxidative stress in rat RBE4 cells assessed as increase in cell viability at 10 to 100 uM cotreated with glucose oxidase for 1 hr measured after 24 hrs by MTT assay", "type": "functional, cell-based"}}, "note": "Activity calls are given as the source filed them. The rule behind the calls is not given here."}
{"smiles": "COCC[Se]c1ccc(S(N)(=O)=O)cc1", "values": [{"measurement": "Activity", "setting": "RBE4 [1]", "result": "Non-Toxic"}, {"measurement": "Ki", "setting": "Carbonic anhydrase 9", "result": 12, "unit": "nM"}, {"measurement": "Activity", "setting": "RBE4 [2]", "result": "Active"}]}
{"smiles": "NS(=O)(=O)c1ccc([Se][Se]c2ccc(S(N)(=O)=O)cc2)cc1", "values": [{"measurement": "mortality", "setting": "RBE4 [3]", "result": 50, "unit": "%"}]}
{"smiles": "NS(=O)(=O)c1ccc([Se]CCc2ccccc2)cc1", "values": [{"measurement": "Ki", "setting": "Carbonic anhydrase 9", "result": 8.7, "unit": "nM"}]}
{"smiles": "CCCCC[Se]c1ccc(S(N)(=O)=O)cc1", "values": [{"measurement": "Activity", "setting": "RBE4 [1]", "result": "Non-Toxic"}, {"measurement": "Ki", "setting": "Carbonic anhydrase 9", "result": 2.6, "unit": "nM"}, {"measurement": "Activity", "setting": "RBE4 [4]", "result": "inactive"}]}
{"smiles": "NS(=O)(=O)c1ccc([Se]C2CCCCC2)cc1", "values": [{"measurement": "Ki", "setting": "Carbonic anhydrase 9", "result": 2.6, "unit": "nM"}]}
{"smiles": "C#CC[Se]c1ccc(S(N)(=O)=O)cc1", "values": [{"measurement": "Ki", "setting": "Carbonic anhydrase 9", "result": 2.7, "unit": "nM"}]}
{"smiles": "CC(C)[Se]c1ccc(S(N)(=O)=O)cc1", "values": [{"measurement": "Activity", "setting": "RBE4 [1]", "result": "Non-Toxic"}, {"measurement": "Ki", "setting": "Carbonic anhydrase 9", "result": 2.4, "unit": "nM"}, {"measurement": "Activity", "setting": "RBE4 [4]", "result": "inactive"}]}
{"smiles": "C[Se]c1ccc(S(N)(=O)=O)cc1", "values": [{"measurement": "Ki", "setting": "Carbonic anhydrase 9", "result": 2.7, "unit": "nM"}]}
{"smiles": "C=CC[Se]c1ccc(S(N)(=O)=O)cc1", "values": [{"measurement": "Ki", "setting": "Carbonic anhydrase 9", "result": 2.6, "unit": "nM"}]}
{"smiles": "NS(=O)(=O)c1ccc([Se]CCO)cc1", "values": [{"measurement": "Activity", "setting": "RBE4 [1]", "result": "Non-Toxic"}, {"measurement": "Ki", "setting": "Carbonic anhydrase 9", "result": 2.4, "unit": "nM"}, {"measurement": "Activity", "setting": "RBE4 [4]", "result": "inactive"}]}
{"smiles": "CC#CC[Se]c1ccc(S(N)(=O)=O)cc1", "values": [{"measurement": "Ki", "setting": "Carbonic anhydrase 9", "result": 2.2, "unit": "nM"}]}
{"smiles": "NS(=O)(=O)c1ccc(C[Se]c2ccccc2)cc1", "values": [{"measurement": "Ki", "setting": "Carbonic anhydrase 9", "result": 2.7, "unit": "nM"}]}
